Entries after “also recorded” stand apart in the source; their conditions may differ.
System: mung bean hypocotyl cuttings
Assay: Comparative mung bean bioassay: rooting response of stem cuttings versus seaweed products and IAA/IBA standards (Example 6)
Type: in vivo
Settings: for pH: 30 mg/L; for stem growth, length: 1% dilution; for concentration with the higher number of roots developed: range 0 to 30 mg/L
From the text: A composition comparative study further embodiment described in detail in Example 6. to determine the concertation of Auxins in relation to Standard indole-3-Butiric acid (IBA) and indole-3-acetic (IAA) embodied in the examples Duckweed Biotech product is a combination of three aquatic plants of the Aracea family, which is compared with commercial seaweed products: Product (1) “K” and Product (2) “M”. The dilutions were made from the liquid concentrated products and the Duckweed Biotech from a natural concentrate extraction of three duckweed species. The equivalent phytohormone activity of IAA and IBA was established by the number of roots to the corresponding treatment dilution and interpolating the number of roots to the corresponding hormone concentration to obtain the total activity in mg/L of the commercial product.
Two commercial giant brown kelp seaweed products, Product (1) “K” made of Ecklonia maxima and Product (2) “M” made of Ascophyllum nodosum were compared with the Duckweed Biotech Product “D” made of a combination of Duckweed aquatic plants of the Araceae family of plants formally known as Lemnaceae family of plants. For the test, a series of dilutions from 0% to 50% were made from the concentrated commercial products.
The preparation of standards was performed using a concentration range of 0, 1, 2, 5, 10, 15, 20 and 30 mg/L of indole-3-butyric acid (IBA) and indole-3-acetic acid (IAA) as shown in Table 20. A dose growth response curve for rooting ability was produced using these auxins.
The mung bean bioassay was used to evaluate plant growth and rooting stimulation response of three products: Duckweed Biotech Product “D”, Product (1) “K” and Product (2) “M”.
The seeds of mung bean seeds were rinse thoroughly with water and soak for […]. in DI water. 2. The seeds were planted in microgreen trays for germination process at 26° C. After 8 days, uniform hypocotyl cuttings with 8 cm length with 2 primary leaves and without cotyledon were transferred to the treatment vials. The cuttings are rinsed with DI water and then soak in 20 mL treatment test solutions for 8 hr. The treatment solutions include Duckweed Biotech Product “D”, Product (1) “K”, Product (2) “M”, indole-3-acetic acid (IAA), and indole-3-butyric acid (IBA). The treatments are follows: • IBA & IAA concentrations: 0, 1, 2, 5, 10, 15, 20 and 30 mg/L • Duckweed Biotech Product “D” Conc.: 0, 0.5, 1, 2, 5, 10, 20 and 50% • Product (1) “K” Conc.: 0, 0.5, 1, 2, 5, 10, 20 and 50% • Product (2) “M” Conc.: 0, 0.5, 1, 2, 5, 10, 20 and 50%
3 After the treatments, the seedling base cuttings were rinsed with DI water and transferred to clean vials with glass beads containing 60 mL of DI water for 8 days. Two cuttings were placed in each vial and two vials were used for each treatment. The vials are left at 28±3° C. ambient air temperature and under lighting at 135 μmol photons m^−2 s^−1 in a 16-h day/8-h night cycle. The humidity is maintained over 60%.
4. After 8 days, the number of roots per hypocotyl was recorded. The plant quality and stem length were also evaluated. The data collected was organized and analyzed using Microsoft Excel
The plant growth and rooting response of each treatment were recorded after 8 days. The rooting response was evaluated based on number of roots developed per cutting. The average number of roots of three cuttings per treatment was used to determine the effectiveness of the treatments. Plant quality and stem length were also recorded. […] The plants with higher rooting response were found at 2% with duckweed treatment with 67 roots. Whereas Product (1) “K” at 20% dilution stimulated root production with 46 roots and Product (2) “M” at 2% dilution with 32 roots. A decline of rooting stimulation was found at 50% dilution for all evaluated products (FIG. 35 & FIG. 36) that coincides with previous research literature for brown kelp extract products. […]

| pH | SMILES | stem growth, length [cm] | root formation, IBA compared with IAA (in vivo) | concentration with the higher number of roots developed [mg/L] |
| --- | --- | --- | --- | --- |
| 6.53 | O=C(O)CCCc1c[nH]c2ccccc12 [IBA, indole-3-butyric acid] | 15 | stimulated more roots in all concentrated treatments than IAA; also recorded: more effective than indol-3-acetic acid (IAA) in root development | 30 |
| 6.92 | O=C(O)Cc1c[nH]c2ccccc12 [IAA, indole-3-acetic acid] | 15 | – | 30 |

Source: patent US20250072433A1, “ORGANIC CONCENTRATED VITAMINE-PHYTOHORMONE WITH NATURAL BIO-STIMULANT PROPERTIES AS FERTILIZER CONCENTRATED EXTRACT OF DUCKWEED ARACEA FAMILY OF PLANTS FORMALY KNOWN AS LEMNACEAE SINGLE OR COMBINED SPECIES THAT CAN INCLUDE ALSO COMPOUNDED MULTIPLE FORMULATED AQUATIC PLANTS EXTRACTS TO NATURALY …” (priority 2021, published 2025)
